Non-standard residues stand in square brackets, D forms with d. No end group written: not given here. hTyr = N[C@@H](CCc1ccc(O)cc1)C(=O)O; hPhe = N[C@@H](CCc1ccccc1)C(=O)O; Phg = N[C@H](C(=O)O)c1ccccc1; Ava = NCCCCC(=O)O; βAla = NCCC(=O)O
Columns and labels:
[1] = molecular target: δ receptors, mouse vas deferens (MVD) (Mus musculus, UniProt P32300); assay: mouse vas deferens (MVD) in vitro functional assay; details: for MVD observed percent efficacy at 10 μM: value in brackets; for MVD functional activity class / EC50: mouse vas deferens; for EC50: read-out: In Vitro Functional Assay [ED50 in μM] MVD, rhenium-complexed peptides
[2] = system: μ receptors, guinea pig ileum (GPI); assay: guinea pig ileum (GPI) in vitro functional assay; details: for EC50: read-out: In Vitro Functional Assay [ED50 in μM] GPI, rhenium-complexed peptides; for EC50 / GPI functional activity class: guinea pig ileum; for GPI observed percent efficacy at 10 μM: value in brackets
κ opiate receptor = κ opiate receptor (Cavia porcellus, UniProt P41144); assay: κ receptor binding assay, guinea-pig brain membrane, 3H-U69593 displacement; details: read-out: Receptor Binding Assay [Ki in μM] Kappa Receptor
Sequence of κ opiate receptor (P41144 whole entry): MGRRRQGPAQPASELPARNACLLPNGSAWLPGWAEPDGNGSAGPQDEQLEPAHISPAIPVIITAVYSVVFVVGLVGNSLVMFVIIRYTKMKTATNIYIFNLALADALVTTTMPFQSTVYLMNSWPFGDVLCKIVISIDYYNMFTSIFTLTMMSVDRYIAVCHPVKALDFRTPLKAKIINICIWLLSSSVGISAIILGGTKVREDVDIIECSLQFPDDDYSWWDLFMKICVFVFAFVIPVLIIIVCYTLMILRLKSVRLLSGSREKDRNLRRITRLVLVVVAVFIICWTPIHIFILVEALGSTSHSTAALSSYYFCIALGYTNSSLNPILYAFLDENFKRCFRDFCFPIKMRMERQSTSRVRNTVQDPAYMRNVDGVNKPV

Sequence of δ receptors, mouse vas deferens (MVD) (P32300 whole entry): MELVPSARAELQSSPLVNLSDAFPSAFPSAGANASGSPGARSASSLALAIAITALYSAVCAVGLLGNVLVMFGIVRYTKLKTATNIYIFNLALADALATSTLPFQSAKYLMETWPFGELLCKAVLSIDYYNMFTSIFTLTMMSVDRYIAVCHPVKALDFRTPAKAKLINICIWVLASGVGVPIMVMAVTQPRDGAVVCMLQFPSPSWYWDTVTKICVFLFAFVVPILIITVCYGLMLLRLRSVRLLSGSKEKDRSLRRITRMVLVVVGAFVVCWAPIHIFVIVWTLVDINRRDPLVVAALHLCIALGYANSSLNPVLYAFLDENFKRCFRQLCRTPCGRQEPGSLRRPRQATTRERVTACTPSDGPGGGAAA

In the case of “(p-OH)—C6H4(CH2)2—NH—CO—CH(NH2)—(CH2)2—CO-Gly-Phe-D-Cys-NH2”, the “MVD observed percent efficacy at 10 μM” value [1] is reported as 9%.
“HTyr-β-Ala-Gly-Phe-Cys-NH2 ([hTyr][βAla]GFC-NH2; also: rhenium complex)” was tested, and the “MVD observed percent efficacy at 10 μM” value [1] was 30%.
In the case of HTyr-β-Ala-Gly-Phe-D-Cys-NH2, the “MVD observed percent efficacy at 10 μM” value [1] is reported as 11%.
In the case of Leu-Enkephalin [reference compound], the EC50 [2] is reported as 0.246 µM.
Lys-Tyr-Cys-OH was tested, and the “GPI observed percent efficacy at 10 μM” value [2] was 34% and the “MVD observed percent efficacy at 10 μM” value [1] was 41%.
In the case of “NH2(CH2)4—CO-Phe-Asp-Cys-HTyr-NH2 ([Ava]FDC[hTyr]-NH2; also: rhenium complex)”, the “MVD observed percent efficacy at 10 μM” value [1] is reported as 20%.
“Tyr-Ala-Cys-HPhe-NH2 (YAC[hPhe]-NH2; also: rhenium complex)” was tested, and the “GPI functional activity class” value [2] was “WPA” and the “MVD functional activity class” value [1] was “WPA”.
For “Tyr-Ala-Cys-Phe-NH2 (YACF-NH2; also: rhenium complex)”, the “GPI functional activity class” value [2] was “WPA” and the “MVD functional activity class” value [1] was “WPA”.
With “Tyr-Ala-Cys-Phg-NH2 (YAC[Phg]-NH2; also: rhenium complex)” the “GPI functional activity class” value [2] was “WPA”.
For “Tyr-Ala-Phe-Cys-OH (YAFC-OH; also: rhenium complex)”, the “GPI observed percent efficacy at 10 μM” value [2] was 8% and the “MVD observed percent efficacy at 10 μM” value [1] was 48%.
In the case of “Tyr-Cys-Gly-Cys-NH2 (YCGC-NH2; cysteine pairing not given here; also: rhenium complex)”, the “GPI observed percent efficacy at 10 μM” value [2] is reported as 14% and the “MVD observed percent efficacy at 10 μM” value [1] is reported as 34%.
In the case of “Tyr-Gly-Cys-HPhe-NH2 (YGC[hPhe]-NH2; also: rhenium complex)”, the “GPI functional activity class” value [2] is reported as “WPA” and the “MVD functional activity class” value [1] is reported as “WPA”.
For “Tyr-Gly-Cys-Phg-NH2 (YGC[Phg]-NH2; also: rhenium complex)”, the “GPI functional activity class” value [2] was “WPA” and the “MVD functional activity class” value [1] was “WPA”.
For Tyr-Lys-Cys-OH, the “GPI observed percent efficacy at 10 μM” value [2] was 41% and the “MVD observed percent efficacy at 10 μM” value [1] was 48%.
For “Tyr-Val-Cys-Phe-NH2 (YVCF-NH2; also: rhenium complex)”, the “MVD [ED30]” value ([1]; ED30 instead of ED50) was 1.42 ± 0.21 µM.
Tyr-[dK]-Cys-OH was tested, and the “GPI observed percent efficacy at 10 μM” value [2] was 57% and the “MVD observed percent efficacy at 10 μM” value [1] was 9%.
In the case of “Tyr-β-Ala-Gly-Phe-Cys-NH2 (Y[βAla]GFC-NH2; also: rhenium complex)”, the “MVD observed percent efficacy at 10 μM” value [1] is reported as 22%.
With YAGFC [Tyr-Ala-Gly-Phe-Cys-NH2] the EC50 [2] was greater than 10 µM and the EC50 [1] was greater than 10 µM.
For YCGFC [Tyr-Cys-Gly-Phe-Cys-NH2], the EC50 [2] was 0.612 µM and the Ki (κ opiate receptor) was 2.1 µM.
For YC[dF]G-NH2, the EC50 [2] was greater than 10 µM and the EC50 [1] was greater than 10 µM.
YGCF [Tyr-Gly-Cys-Phe-NH2] gave an EC50 [2] greater than 10 µM and an EC50 [1] of 1.35 µM.
Work on YGGCF [Tyr-Gly-Gly-Cys-Phe-NH2] yielded an EC50 [2] greater than 10 µM and an EC50 [1] greater than 10 µM.
Work on YG[dF]C-NH2 yielded an EC50 [2] greater than 10 µM and an EC50 [1] greater than 10 µM.
With Y[dA]CF-NH2 the “GPI [ED40]” value ([2]; ED40 instead of ED50) was 3.06 ± 0.29 µM and the “MVD observed percent efficacy at 10 μM” value [1] was 16%.
Substance Y[dK]CF has an EC50 [2] of 3.03 ± 0.43 µM.
For Y[βAla]FGC-OH, the “GPI observed percent efficacy at 10 μM” value [2] was 51% and the “MVD observed percent efficacy at 10 μM” value [1] was 17%.
Y[βAla]GF[dC]-NH2 was tested, and the “MVD observed percent efficacy at 10 μM” value [1] was 30%.
With [dK]-Tyr-Cys-OH the “GPI observed percent efficacy at 10 μM” value [2] was 28% and the “MVD observed percent efficacy at 10 μM” value [1] was 18%.

— US6979436B2, “Opioid metallopeptide compositions and methods” (Palatin Technologies, Inc., priority 1999, dated 2005)
